What was measured:
[1] = target: Epidermal growth factor receptor (Homo sapiens) (UniProt P00533); assay: Inhibition of EGFR Lys1 labeling site harbouring IPVAIKELR in human Huh-7 cell lysate at 1 uM by KiNativ Profiling analysis relative to control; type: subcellular
[2] = target: T1, Serine/threonine-protein kinase D2 (Homo sapiens) (UniProt Q9BZL6); assay: Inhibition of PKD2 Lys2 labeling site in human Huh-7 cell lysate at 1 uM by KiNativ Profiling analysis relative to control; type: subcellular
T1 sequence (whole entry): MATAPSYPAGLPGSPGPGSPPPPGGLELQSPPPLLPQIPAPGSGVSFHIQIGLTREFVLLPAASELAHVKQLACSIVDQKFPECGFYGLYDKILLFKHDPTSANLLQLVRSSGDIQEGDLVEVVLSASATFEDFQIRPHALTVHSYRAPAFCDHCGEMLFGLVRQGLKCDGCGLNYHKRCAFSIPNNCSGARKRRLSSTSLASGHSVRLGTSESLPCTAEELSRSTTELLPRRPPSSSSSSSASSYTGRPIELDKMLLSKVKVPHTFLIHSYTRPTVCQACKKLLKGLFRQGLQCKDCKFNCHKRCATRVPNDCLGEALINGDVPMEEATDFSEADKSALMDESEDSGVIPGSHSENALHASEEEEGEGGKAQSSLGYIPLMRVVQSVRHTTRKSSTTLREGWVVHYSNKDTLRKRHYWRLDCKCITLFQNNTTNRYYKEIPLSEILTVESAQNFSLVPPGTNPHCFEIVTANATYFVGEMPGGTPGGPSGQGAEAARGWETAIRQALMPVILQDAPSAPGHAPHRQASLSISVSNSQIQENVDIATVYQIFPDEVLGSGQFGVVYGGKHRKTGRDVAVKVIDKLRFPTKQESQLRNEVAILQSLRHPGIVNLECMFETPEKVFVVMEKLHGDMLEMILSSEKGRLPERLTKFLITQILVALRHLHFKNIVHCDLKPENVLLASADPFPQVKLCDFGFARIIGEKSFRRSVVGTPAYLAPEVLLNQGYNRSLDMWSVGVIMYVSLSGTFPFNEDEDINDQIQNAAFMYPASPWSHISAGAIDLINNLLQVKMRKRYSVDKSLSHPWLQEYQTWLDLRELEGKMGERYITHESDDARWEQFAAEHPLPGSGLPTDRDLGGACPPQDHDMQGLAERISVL

[3] = target: Serine/threonine-protein kinase PLK1 (Homo sapiens) (UniProt P53350); assay: Inhibition of PLK1 Lys2 labeling site harbouring DLKLGNLFLNEDLEVK in human Huh-7 cell lysate at 1 uM by KiNativ Profiling analysis relative to control; type: subcellular
Serine/threonine-protein kinase PLK1 (Homo sapiens), sequence (P53350 whole entry): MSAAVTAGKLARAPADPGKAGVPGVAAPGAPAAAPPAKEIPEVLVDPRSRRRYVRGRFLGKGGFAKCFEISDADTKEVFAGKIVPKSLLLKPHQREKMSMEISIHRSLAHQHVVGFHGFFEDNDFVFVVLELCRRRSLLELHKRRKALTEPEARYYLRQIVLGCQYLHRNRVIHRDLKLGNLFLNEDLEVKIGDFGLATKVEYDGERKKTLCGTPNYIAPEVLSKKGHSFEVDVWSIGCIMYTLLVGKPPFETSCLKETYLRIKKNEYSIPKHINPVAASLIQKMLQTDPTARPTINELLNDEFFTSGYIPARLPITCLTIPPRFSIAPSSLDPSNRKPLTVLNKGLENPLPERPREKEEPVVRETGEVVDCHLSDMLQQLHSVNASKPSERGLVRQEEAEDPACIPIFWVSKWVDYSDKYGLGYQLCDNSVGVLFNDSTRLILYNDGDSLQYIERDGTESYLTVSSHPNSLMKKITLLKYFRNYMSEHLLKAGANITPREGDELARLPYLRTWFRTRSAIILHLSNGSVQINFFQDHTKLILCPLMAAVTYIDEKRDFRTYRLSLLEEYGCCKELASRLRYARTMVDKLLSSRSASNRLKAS

[4] = target: Cyclin-dependent kinase 2 (Homo sapiens) (UniProt P24941); assay: Inhibition of CDK2 Lys1 labeling site in human Huh-7 cell lysate at 1 uM by KiNativ Profiling analysis relative to control; type: subcellular
[5] = target: T2, Aurora kinase A (Homo sapiens) (UniProt O14965); assay: Inhibition of AurA K2 labeling site harbouring DIKPENLLLGSAGELK in human Huh-7 cells at 1 uM by KiNativ Profiling analysis relative to control; type: cell-based
T2 sequence (whole entry): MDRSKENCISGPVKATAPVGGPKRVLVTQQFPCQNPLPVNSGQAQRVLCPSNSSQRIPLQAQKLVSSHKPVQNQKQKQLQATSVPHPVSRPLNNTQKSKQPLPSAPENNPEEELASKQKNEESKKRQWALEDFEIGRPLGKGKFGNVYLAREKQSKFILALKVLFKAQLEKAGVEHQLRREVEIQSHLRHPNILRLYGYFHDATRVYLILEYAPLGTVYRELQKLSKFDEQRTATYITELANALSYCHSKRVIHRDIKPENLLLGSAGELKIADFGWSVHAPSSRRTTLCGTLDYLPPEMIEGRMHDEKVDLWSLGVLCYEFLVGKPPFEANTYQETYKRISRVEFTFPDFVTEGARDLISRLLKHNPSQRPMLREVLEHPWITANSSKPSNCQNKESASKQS

[6] = target: Hepatocyte growth factor receptor (Homo sapiens) (UniProt P08581); assay: Inhibition of MET ACT labeling site in human Huh-7 cells at 10 uM by KiNativ Profiling analysis relative to control; type: cell-based
Hepatocyte growth factor receptor (Homo sapiens), sequence (P08581 whole entry): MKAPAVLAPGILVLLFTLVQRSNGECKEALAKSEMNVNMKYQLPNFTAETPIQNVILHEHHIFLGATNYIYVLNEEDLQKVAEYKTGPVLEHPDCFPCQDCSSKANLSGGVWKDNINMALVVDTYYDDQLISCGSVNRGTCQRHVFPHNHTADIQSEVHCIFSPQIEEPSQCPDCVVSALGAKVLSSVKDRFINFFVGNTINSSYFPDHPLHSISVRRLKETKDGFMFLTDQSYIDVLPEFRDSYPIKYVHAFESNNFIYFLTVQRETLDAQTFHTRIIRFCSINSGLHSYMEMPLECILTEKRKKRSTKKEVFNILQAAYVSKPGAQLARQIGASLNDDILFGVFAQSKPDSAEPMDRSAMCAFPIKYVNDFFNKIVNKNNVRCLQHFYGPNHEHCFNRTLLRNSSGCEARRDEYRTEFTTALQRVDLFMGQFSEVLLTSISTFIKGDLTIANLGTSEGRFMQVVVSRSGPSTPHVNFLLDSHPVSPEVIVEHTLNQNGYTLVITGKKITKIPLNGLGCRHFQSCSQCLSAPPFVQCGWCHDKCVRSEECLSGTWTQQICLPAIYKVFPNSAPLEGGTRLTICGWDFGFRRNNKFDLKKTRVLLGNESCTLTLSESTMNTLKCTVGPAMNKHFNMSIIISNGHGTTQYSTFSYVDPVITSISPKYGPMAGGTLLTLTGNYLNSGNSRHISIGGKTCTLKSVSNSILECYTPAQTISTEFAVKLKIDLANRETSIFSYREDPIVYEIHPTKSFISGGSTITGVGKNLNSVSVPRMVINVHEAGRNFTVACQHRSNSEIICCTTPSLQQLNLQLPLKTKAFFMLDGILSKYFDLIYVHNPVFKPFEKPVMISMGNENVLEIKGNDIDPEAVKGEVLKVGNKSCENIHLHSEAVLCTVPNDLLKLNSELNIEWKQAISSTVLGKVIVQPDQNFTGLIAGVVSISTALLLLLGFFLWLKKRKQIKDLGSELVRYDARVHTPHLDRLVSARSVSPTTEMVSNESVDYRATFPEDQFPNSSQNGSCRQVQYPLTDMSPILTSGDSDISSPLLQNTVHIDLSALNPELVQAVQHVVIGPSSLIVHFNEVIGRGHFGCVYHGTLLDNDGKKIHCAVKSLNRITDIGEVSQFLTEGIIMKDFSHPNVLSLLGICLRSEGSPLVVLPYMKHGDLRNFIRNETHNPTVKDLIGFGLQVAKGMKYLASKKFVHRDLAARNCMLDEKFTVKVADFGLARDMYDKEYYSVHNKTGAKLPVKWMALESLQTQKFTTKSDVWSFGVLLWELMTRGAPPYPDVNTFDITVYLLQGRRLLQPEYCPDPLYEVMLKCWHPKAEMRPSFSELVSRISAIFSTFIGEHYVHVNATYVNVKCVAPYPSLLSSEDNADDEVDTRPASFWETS

[7] = target: Mitogen-activated protein kinase kinase kinase kinase 3 (Homo sapiens) (UniProt Q8IVH8); assay: Inhibition of MAP4K3 (unknown origin) at 10 uM by Ambit Kinomescan binding assay relative to control
Mitogen-activated protein kinase kinase kinase kinase 3 (Homo sapiens), sequence (Q8IVH8 whole entry): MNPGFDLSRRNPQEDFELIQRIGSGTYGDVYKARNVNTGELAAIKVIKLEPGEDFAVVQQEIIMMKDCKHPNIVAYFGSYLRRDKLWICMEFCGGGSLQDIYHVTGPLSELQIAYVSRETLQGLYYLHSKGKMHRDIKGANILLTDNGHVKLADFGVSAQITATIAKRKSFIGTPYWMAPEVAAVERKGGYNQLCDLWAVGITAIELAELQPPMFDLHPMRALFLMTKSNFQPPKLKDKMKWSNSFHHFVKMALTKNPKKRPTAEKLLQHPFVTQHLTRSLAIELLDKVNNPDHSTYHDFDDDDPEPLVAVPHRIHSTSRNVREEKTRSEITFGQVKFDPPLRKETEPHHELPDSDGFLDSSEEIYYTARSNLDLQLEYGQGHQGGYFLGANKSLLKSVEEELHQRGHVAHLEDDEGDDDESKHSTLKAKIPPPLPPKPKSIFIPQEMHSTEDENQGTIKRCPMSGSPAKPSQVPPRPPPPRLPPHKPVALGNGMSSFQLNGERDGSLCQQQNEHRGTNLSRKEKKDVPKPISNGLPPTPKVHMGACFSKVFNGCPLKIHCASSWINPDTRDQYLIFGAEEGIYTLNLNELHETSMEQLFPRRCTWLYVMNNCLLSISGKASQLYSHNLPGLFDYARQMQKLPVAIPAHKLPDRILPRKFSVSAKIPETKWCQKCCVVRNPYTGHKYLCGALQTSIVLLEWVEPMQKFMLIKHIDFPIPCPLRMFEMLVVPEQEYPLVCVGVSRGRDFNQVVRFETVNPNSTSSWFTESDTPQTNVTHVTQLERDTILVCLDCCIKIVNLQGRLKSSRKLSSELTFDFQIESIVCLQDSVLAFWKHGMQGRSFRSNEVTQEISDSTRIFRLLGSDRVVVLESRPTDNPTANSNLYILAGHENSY

[8] = target: T3, Interleukin-1 receptor-associated kinase 4 (Homo sapiens) (UniProt Q9NWZ3); assay: Inhibition of IRAK4 K2 labeling site in human Huh-7 cells at 10 uM by KiNativ Profiling analysis relative to control; type: cell-based
T3 sequence (whole entry): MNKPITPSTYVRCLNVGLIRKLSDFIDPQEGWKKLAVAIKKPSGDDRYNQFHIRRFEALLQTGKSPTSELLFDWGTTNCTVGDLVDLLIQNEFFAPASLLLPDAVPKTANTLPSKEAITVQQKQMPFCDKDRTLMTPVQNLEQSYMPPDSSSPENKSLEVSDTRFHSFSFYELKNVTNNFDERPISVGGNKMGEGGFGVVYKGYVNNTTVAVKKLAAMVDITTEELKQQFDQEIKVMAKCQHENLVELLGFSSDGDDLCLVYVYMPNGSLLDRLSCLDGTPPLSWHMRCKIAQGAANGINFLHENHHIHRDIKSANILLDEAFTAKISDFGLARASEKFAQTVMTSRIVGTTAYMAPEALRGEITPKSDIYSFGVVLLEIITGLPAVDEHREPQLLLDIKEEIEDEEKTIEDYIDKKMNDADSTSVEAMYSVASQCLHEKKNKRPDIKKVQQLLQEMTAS

[9] = target: Tyrosine-protein kinase Lck (Homo sapiens) (UniProt P06239); assay: Inhibition of LCK (unknown origin) at 1 uM by Ambit Kinomescan binding assay relative to control
Tyrosine-protein kinase Lck (Homo sapiens), sequence (P06239 2-509 limits assumed): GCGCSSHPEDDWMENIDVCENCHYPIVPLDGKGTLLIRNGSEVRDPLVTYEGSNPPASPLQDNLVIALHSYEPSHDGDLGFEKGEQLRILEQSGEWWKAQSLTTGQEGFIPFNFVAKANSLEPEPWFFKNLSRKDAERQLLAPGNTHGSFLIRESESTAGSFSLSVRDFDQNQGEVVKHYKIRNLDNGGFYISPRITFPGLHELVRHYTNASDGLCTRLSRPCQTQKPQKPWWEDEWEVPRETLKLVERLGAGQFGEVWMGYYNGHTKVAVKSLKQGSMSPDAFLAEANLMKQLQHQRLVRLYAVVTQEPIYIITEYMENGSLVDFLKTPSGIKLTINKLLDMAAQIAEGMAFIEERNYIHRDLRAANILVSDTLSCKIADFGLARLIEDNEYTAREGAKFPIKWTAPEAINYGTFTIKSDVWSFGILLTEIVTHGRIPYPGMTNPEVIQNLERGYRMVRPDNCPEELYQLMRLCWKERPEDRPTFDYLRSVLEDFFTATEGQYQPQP

[10] = target: Ephrin type-B receptor 6 (Homo sapiens) (UniProt O15197); assay: Inhibition of EPHB6 (unknown origin) at 1 uM by Ambit Kinomescan binding assay relative to control; values are per cent of control
Ephrin type-B receptor 6 (Homo sapiens), sequence (O15197 whole entry): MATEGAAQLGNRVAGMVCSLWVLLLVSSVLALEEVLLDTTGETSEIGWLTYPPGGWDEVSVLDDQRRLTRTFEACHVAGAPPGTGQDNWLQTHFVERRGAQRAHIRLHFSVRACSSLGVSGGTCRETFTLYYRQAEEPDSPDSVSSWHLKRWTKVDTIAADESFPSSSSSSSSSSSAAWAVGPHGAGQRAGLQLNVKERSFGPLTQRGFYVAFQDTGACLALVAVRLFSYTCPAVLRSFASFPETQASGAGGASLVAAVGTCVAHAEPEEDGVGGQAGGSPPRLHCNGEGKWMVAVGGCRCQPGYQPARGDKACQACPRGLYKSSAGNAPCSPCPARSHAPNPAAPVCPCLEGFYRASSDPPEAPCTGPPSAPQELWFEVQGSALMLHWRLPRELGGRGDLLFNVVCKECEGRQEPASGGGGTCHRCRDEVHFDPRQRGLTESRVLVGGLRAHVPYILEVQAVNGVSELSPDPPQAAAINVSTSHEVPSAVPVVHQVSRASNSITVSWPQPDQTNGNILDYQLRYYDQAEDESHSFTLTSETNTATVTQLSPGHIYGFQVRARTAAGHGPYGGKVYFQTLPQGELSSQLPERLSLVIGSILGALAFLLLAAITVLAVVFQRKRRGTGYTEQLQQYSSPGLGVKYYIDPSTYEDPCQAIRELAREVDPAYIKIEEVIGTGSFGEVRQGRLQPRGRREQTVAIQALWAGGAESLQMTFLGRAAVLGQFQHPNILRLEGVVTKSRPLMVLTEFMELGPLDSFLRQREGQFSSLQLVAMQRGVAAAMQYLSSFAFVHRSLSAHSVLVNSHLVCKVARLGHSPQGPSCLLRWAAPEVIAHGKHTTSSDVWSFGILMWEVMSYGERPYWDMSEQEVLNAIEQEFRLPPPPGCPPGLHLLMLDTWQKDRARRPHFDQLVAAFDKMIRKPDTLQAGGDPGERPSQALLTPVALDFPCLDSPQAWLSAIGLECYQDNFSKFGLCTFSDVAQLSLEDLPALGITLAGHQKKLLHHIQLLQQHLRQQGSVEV

[11] = tested on: Epidermal growth factor receptor (Homo sapiens), P00533 [UNDEFINED MUTATION]; assay: Inhibition of EGFR E746-A750del mutant (unknown origin) at 1 uM by Ambit Kinomescan binding assay relative to control
[12] = target: Mitogen-activated protein kinase kinase kinase 4 (Homo sapiens) (UniProt Q9Y6R4); assay: Inhibition of MAP3K4 Lys2 labeling site in human A-375 cells at 5 uM by KiNativ Profiling analysis relative to control; type: cell-based
[13] = target: Serine/threonine-protein kinase RIO1 (Homo sapiens) (UniProt Q9BRS2); assay: Inhibition of RIOK1 (unknown origin) at 1 uM by Ambit Kinomescan binding assay relative to control
Serine/threonine-protein kinase RIO1 (Homo sapiens), sequence (Q9BRS2 whole entry): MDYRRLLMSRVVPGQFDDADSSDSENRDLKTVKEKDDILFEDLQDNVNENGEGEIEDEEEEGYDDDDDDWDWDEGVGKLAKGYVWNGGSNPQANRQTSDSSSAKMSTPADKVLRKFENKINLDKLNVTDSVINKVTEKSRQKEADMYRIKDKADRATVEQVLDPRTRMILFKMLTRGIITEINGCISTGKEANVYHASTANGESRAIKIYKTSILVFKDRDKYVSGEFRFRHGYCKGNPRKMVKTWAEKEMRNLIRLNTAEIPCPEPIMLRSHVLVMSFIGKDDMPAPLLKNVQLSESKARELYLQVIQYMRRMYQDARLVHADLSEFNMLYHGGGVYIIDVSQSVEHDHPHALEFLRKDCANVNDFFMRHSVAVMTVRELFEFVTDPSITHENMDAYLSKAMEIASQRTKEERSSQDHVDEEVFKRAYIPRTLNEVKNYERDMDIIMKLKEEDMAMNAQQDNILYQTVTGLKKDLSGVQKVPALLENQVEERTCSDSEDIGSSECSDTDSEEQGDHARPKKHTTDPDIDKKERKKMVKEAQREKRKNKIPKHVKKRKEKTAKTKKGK

[14] = target: G protein-coupled receptor kinase 4 (Homo sapiens) (UniProt P32298); assay: Inhibition of GRK4 (unknown origin) at 1 uM by Ambit Kinomescan binding assay relative to control; values are per cent of control

Structure (SMILES): CNc1cc(Oc2cc(C(=O)Nc3cc(N4CCN(C)CC4)cc(C(F)(F)F)c3)ccc2C)ncn1
- inhibition [1]: 4.5%
- inhibition [2]: -3.5%
- inhibition [3]: -8.3%
- inhibition [4]: 17.7%

Structure (SMILES): CCN1CCN(Cc2ccc(NC(=O)c3ccc(C)c(Oc4ccnc5[nH]ccc45)c3)cc2C(F)(F)F)CC1
- inhibition [5]: 0.9%
- inhibition [6]: -8%
- inhibition [7]: 18%
- inhibition [8]: 17.8%

Structure (SMILES): CCN1CCN(Cc2ccc(NC(=O)c3ccc(C)c(/C=C/c4cnc5[nH]ccc5c4OC)c3)cc2C(F)(F)F)CC1
- inhibition [9]: 0.35%
- residual activity [10]: 2.8%
- inhibition [11]: 0.7%
- inhibition [12]: 14.2%
- inhibition [13]: 20%
- residual activity [14]: 40%
